# Measured values taken from PubChem BioAssay AID330 (DTP/NCI, 2004).
# Values joined by “and” are separate entries in the source; they are usually repeats but may differ in a detail not shown here. Equal entries are not always repeated. Inconclusive results and toxic doses are left out.
# Test system: P388 leukemia ip, CD2F1 mice, survival T/C
# Experiment: NCI In Vivo Anticancer Drug Screen. Data for tumor model P388 Leukemia (intraperitoneal) in CD2F1 (CDF1) mice
# Conditions: endpoint: median survival time, higher = longer survival
# How it was run: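 Mice carrying the transplanted tumor received test compound or vehicle. Survival was recorded in each group, and the value is the treated-group measurement divided by that of the vehicle-treated control group.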
# [1] = dose: 50.0 mg/kg/injection, schedule: Q01DX009 (ip), vehicle: saline
# [2] = dose: 100.0 mg/kg/injection, schedule: Q01DX009 (ip), vehicle: saline
# [3] = dose: 60.0 mg/kg/injection, schedule: Q01DX005 (ip), vehicle: saline with Tween-80
# [4] = dose: 120.0 mg/kg/injection, schedule: Q01DX005 (ip), vehicle: saline with Tween-80
# [5] = dose: 240.0 mg/kg/injection, schedule: Q01DX005 (ip), vehicle: saline with Tween-80
# [6] = dose: 50.0 mg/kg/injection, schedule: Q01DX005 (ip), vehicle: saline with Tween-80
# [7] = dose: 100.0 mg/kg/injection, schedule: Q01DX005 (ip), vehicle: saline with Tween-80
# [8] = dose: 200.0 mg/kg/injection, schedule: Q01DX005 (ip), vehicle: saline with Tween-80
# [9] = dose: 50.0 mg/kg/injection, schedule: Q01DX009 (ip), vehicle: Klucel (hydroxypropylcellulose) (HPC)
# [10] = dose: 100.0 mg/kg/injection, schedule: Q01DX009 (ip), vehicle: Klucel (hydroxypropylcellulose) (HPC)
# [11] = dose: 200.0 mg/kg/injection, schedule: Q01DX009 (ip), vehicle: Klucel (hydroxypropylcellulose) (HPC)
smiles,measurement,setting,value
Cc1cc(Cl)nn2cc(C(=O)O)nc12,T/C,"dose: 50.0 mg/kg/injection, schedule: Q01DX001 (ip), vehicle: Klucel (hydroxypropylcellulose) (HPC)",104 % of control
same,T/C,"dose: 100.0 mg/kg/injection, schedule: Q01DX001 (ip), vehicle: Klucel (hydroxypropylcellulose) (HPC)",96 % of control
same,T/C,"dose: 200.0 mg/kg/injection, schedule: Q01DX001 (ip), vehicle: Klucel (hydroxypropylcellulose) (HPC)",97 % of control
CC(=O)OC1OC(COS(C)(=O)=O)C(OC(C)=O)C(OS(C)(=O)=O)C1OC(C)=O (centres undefined),T/C,[1],92 % of control
same,T/C,[2],118 % of control
same,T/C,"dose: 400.0 mg/kg/injection, schedule: Q01DX009 (ip), vehicle: saline",88 % of control
O=c1[nH]c2cc([N+](=O)[O-])ccc2nc1/C=C(\O)c1ccncc1,T/C,"dose: 60.0 mg/kg/injection, schedule: Q01DX005 (ip), vehicle: Klucel + Tween-80",94 % of control
same,T/C,"dose: 120.0 mg/kg/injection, schedule: Q01DX005 (ip), vehicle: Klucel + Tween-80",88 % of control
same,T/C,"dose: 240.0 mg/kg/injection, schedule: Q01DX005 (ip), vehicle: Klucel + Tween-80",100 % of control
Cc1ccc([N+](=O)[O-])cc1NC(=O)NNC(=O)CNC(=O)Nc1cccc(C(F)(F)F)c1,T/C,[3],95 % of control
same,T/C,[4],96 % of control
same,T/C,[5],100 % of control
N=C1C=CC2C(=Nc3ccccc3[N+]2=O)N1Cc1ccncc1 (centres undefined),T/C,[3],98 % of control
same,T/C,[4],90 % of control
same,T/C,[5],98 % of control
Cc1ccc(SCC(=O)NCc2cccs2)cc1,T/C,[6],103 % of control
same,T/C,[7],97 % of control
same,T/C,[8],93 % of control
O=C1CN(CCN2CCCCC2)CC(=O)N2CCCCN12,T/C,[6],102 % of control
same,T/C,[7],107 % of control
CSC(=N\N=C\c1ccc(N(C)C)cc1)/N=C/N(C)C,T/C,[3],100 % of control
same,T/C,[4],103 % of control
same,T/C,[5],103 % of control
CC(C)[Si]1(C(C)C)N([Si](C)(C)F)[Si](C(C)C)(C(C)C)N1[Si](C)(C)F,T/C,"dose: 60.0 mg/kg/injection, schedule: Q01DX005 (ip), vehicle: saline",97 % of control
same,T/C,"dose: 120.0 mg/kg/injection, schedule: Q01DX005 (ip), vehicle: saline",87 % of control
same,T/C,"dose: 240.0 mg/kg/injection, schedule: Q01DX005 (ip), vehicle: saline",100 % of control
CCC(=O)NCC(=O)O,T/C,"dose: 3.13 mg/kg/injection, schedule: Q01DX009 (ip), vehicle: saline with Tween-80",100 % of control
same,T/C,"dose: 6.25 mg/kg/injection, schedule: Q01DX009 (ip), vehicle: saline with Tween-80",104 % of control and 86 % of control
same,T/C,"dose: 6.25 mg/kg/injection, schedule: Q04DX003 (ip), vehicle: saline with Tween-80",110 % of control
same,T/C,"dose: 12.5 mg/kg/injection, schedule: Q01DX009 (ip), vehicle: saline with Tween-80",109 % of control
same,T/C,"dose: 12.5 mg/kg/injection, schedule: Q04DX003 (ip), vehicle: saline with Tween-80",100 % of control
same,T/C,"dose: 25.0 mg/kg/injection, schedule: Q04DX003 (ip), vehicle: saline with Tween-80",100 % of control
CC(C1CC2(C)OC2(CO)C(=O)O1)C1CCC2C3CC4OC45C(O)C4OC4C(=O)C5(C)C3CCC12C (centres undefined),T/C,"dose: 5.0 mg/kg/injection, schedule: Q01DX005 (ip), vehicle: Klucel (hydroxypropylcellulose) (HPC)",96 % of control
same,T/C,"dose: 10.0 mg/kg/injection, schedule: Q01DX005 (ip), vehicle: Klucel (hydroxypropylcellulose) (HPC)",100 % of control
same,T/C,"dose: 20.0 mg/kg/injection, schedule: Q01DX005 (ip), vehicle: Klucel (hydroxypropylcellulose) (HPC)",96 % of control
same,T/C,"dose: 40.0 mg/kg/injection, schedule: Q01DX005 (ip), vehicle: Klucel (hydroxypropylcellulose) (HPC)",92 % of control
same,T/C,"dose: 80.0 mg/kg/injection, schedule: Q01DX005 (ip), vehicle: Klucel (hydroxypropylcellulose) (HPC)",89 % of control
O=C=N[Si](c1ccccc1)(c1ccccc1)c1ccccc1,T/C,"dose: 100.0 mg/kg/injection, schedule: Q01DX001 (ip), vehicle: saline with Tween-80",96 % of control
same,T/C,"dose: 200.0 mg/kg/injection, schedule: Q01DX001 (ip), vehicle: saline with Tween-80",89 % of control
CC(C)CC(N)C(=O)OCN1C(=O)C2C3C=CC(C2C1=O)C1C2C(=O)N(COC(=O)C(N)CC(C)C)C(=O)C2C31 (centres undefined),T/C,"dose: 12.5 mg/kg/injection, schedule: Q01DX009 (ip), vehicle: saline",102 % of control and 105 % of control
same,T/C,"dose: 25.0 mg/kg/injection, schedule: Q01DX009 (ip), vehicle: saline",105 % of control and 108 % of control
same,T/C,[1],109 % of control and 119 % of control
same,T/C,[2],162 % of control and 177 % of control
Cn1c(N(CCN2CCOCC2)C(=O)/C=C\c2ccccc2)cc(=O)n(C)c1=O,T/C,[6],105 % of control
same,T/C,"dose: 50.0 mg/kg/injection, schedule: Q01DX005 (ip), vehicle: water",103 % of control
same,T/C,[7],100 % of control
same,T/C,"dose: 100.0 mg/kg/injection, schedule: Q01DX005 (ip), vehicle: water",112 % of control
same,T/C,[8],97 % of control
same,T/C,"dose: 200.0 mg/kg/injection, schedule: Q01DX005 (ip), vehicle: water",109 % of control
COc1ccc2c(c1OC)C(C(Cl)(Cl)Cl)N1CCc3cc4c(cc3C1=C2C=O)OCO4 (centres undefined),T/C,[6],98 % of control
same,T/C,[7],90 % of control
same,T/C,[8],90 % of control
Cc1ccc(/C=N/NC(=O)C(=O)Nc2ccc(Cl)c([N+](=O)[O-])c2)cc1,T/C,"dose: 6.25 mg/kg/injection, schedule: Q01DX005 (ip), vehicle: saline with Tween-80",88 % of control
same,T/C,"dose: 12.5 mg/kg/injection, schedule: Q01DX005 (ip), vehicle: saline with Tween-80",95 % of control
CC(C)n1c2c([n+](C)c1/C=C/c1ccccc1)C(=O)c1ccccc1C2=O,T/C,"dose: 0.44 mg/kg/injection, schedule: Q01DX009 (ip), vehicle: saline",109 % of control
same,T/C,"dose: 0.66 mg/kg/injection, schedule: Q01DX009 (ip), vehicle: saline",116 % of control
same,T/C,"dose: 1.0 mg/kg/injection, schedule: Q01DX009 (ip), vehicle: saline",119 % of control
same,T/C,"dose: 1.5 mg/kg/injection, schedule: Q01DX009 (ip), vehicle: saline",112 % of control
Oc1ccccc1C=Nc1ccc2nc(SCc3ccccc3)sc2c1,T/C,[9],109 % of control
same,T/C,[10],100 % of control
same,T/C,[11],89 % of control
COc1cc2c3c(n(C)c(=O)c2cc1OC)-c1cc2c(cc1C3=O)OCO2,T/C,"dose: 2.0 mg/kg/injection, schedule: Q01DX009 (ip), vehicle: distilled water + Tween-80",98 % of control
same,T/C,"dose: 4.0 mg/kg/injection, schedule: Q01DX009 (ip), vehicle: distilled water + Tween-80",100 % of control
same,T/C,"dose: 8.0 mg/kg/injection, schedule: Q01DX009 (ip), vehicle: distilled water + Tween-80",107 % of control
same,T/C,"dose: 16.0 mg/kg/injection, schedule: Q01DX009 (ip), vehicle: distilled water + Tween-80",98 % of control
same,T/C,"dose: 32.0 mg/kg/injection, schedule: Q01DX009 (ip), vehicle: distilled water + Tween-80",100 % of control
same,T/C,"dose: 64.0 mg/kg/injection, schedule: Q01DX009 (ip), vehicle: distilled water + Tween-80",99 % of control and 109 % of control
same,T/C,"dose: 128.0 mg/kg/injection, schedule: Q01DX009 (ip), vehicle: distilled water + Tween-80",111 % of control and 123 % of control
same,T/C,"dose: 256.0 mg/kg/injection, schedule: Q01DX009 (ip), vehicle: distilled water + Tween-80",100 % of control and 92 % of control
CSc1n[nH]c(C(F)(F)F)n1,T/C,"dose: 30.0 mg/kg/injection, schedule: Q01DX005 (ip), vehicle: Klucel (hydroxypropylcellulose) (HPC)",105 % of control
same,T/C,"dose: 60.0 mg/kg/injection, schedule: Q01DX005 (ip), vehicle: Klucel (hydroxypropylcellulose) (HPC)",103 % of control
same,T/C,"dose: 120.0 mg/kg/injection, schedule: Q01DX005 (ip), vehicle: Klucel (hydroxypropylcellulose) (HPC)",95 % of control
same,T/C,"dose: 240.0 mg/kg/injection, schedule: Q01DX005 (ip), vehicle: Klucel (hydroxypropylcellulose) (HPC)",94 % of control
CC1(C)OC1(C)C,T/C,"dose: 50.0 mg/kg/injection, schedule: Q01DX009 (ip), vehicle: saline with Tween-80",100 % of control
same,T/C,"dose: 100.0 mg/kg/injection, schedule: Q01DX009 (ip), vehicle: saline with Tween-80",104 % of control
same,T/C,"dose: 200.0 mg/kg/injection, schedule: Q01DX009 (ip), vehicle: saline with Tween-80",102 % of control
same,T/C,"dose: 400.0 mg/kg/injection, schedule: Q01DX009 (ip), vehicle: saline with Tween-80",111 % of control
Cc1cc(=O)c2c(ccc3c(=O)cc(C)[nH]c32)[nH]1,T/C,"dose: 30.0 mg/kg/injection, schedule: Q01DX005 (ip), vehicle: saline with Tween-80",93 % of control
same,T/C,[3],91 % of control
same,T/C,[4],100 % of control and 91 % of control
O=C1CN(CCN2CC(=O)N(CN3CCOCC3)C(=O)C2)CC(=O)N1CN1CCOCC1,T/C,"dose: 12.5 mg/kg/injection, schedule: Q01DX005 (ip), vehicle: water",108 % of control and 111 % of control and 119 % of control
CC(=O)OC1(C)SCCN1C(N)=O (centres undefined),T/C,[9],99 % of control
same,T/C,[10],104 % of control
same,T/C,[11],100 % of control
